# Columns and labels:
# STAT4 = target: T1, STAT4 (Homo sapiens, UniProt Q14765); test: Competitive fluorescence polarization (FP) binding assay, STAT4; conditions: for IC50: 2 % DMSO for 5, 10 % DMSO for 10; for Ki: Ki calculated from IC50, 2 % DMSO for 5, 10 % DMSO for 10
# T1 sequence (Q14765 1-748): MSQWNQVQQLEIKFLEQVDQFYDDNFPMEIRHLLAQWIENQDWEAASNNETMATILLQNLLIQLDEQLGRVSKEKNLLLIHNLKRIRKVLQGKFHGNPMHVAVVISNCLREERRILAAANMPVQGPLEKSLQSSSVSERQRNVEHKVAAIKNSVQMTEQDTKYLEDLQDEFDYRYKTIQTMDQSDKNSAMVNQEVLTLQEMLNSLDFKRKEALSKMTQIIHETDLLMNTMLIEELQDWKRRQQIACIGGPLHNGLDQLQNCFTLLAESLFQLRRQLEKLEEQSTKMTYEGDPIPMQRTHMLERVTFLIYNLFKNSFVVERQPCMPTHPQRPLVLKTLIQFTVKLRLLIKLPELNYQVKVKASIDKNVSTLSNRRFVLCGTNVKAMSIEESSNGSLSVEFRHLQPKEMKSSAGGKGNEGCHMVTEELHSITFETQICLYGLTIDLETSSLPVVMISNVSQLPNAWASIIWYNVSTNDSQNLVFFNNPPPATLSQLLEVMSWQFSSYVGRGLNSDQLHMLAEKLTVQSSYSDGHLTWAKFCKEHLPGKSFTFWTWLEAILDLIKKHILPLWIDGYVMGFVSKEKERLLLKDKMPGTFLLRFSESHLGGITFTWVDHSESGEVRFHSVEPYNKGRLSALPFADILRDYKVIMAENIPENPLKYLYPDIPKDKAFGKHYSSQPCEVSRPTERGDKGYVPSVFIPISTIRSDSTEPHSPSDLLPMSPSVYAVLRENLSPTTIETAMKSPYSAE
# Procedure: (§1) Fluorescence polarization assays: Competitive binding assays based on fluorescence polarization were carried out essentially as previously described.[[4a]] Unless stated otherwise, final concentrations of the buffer components were: 10 mM Tris (pH 8.0), 50 mM NaCl, 1 mM EDTA, 1 mM DTT, 0.1 % (v/v) Nonidet P‐40 substitute, and 2 % DMSO. Proteins were used at concentrations which reflect the Kd values of the interactions between the fluoropeptide and the protein preparations. Protein concentrations used for activity analysis of compound 5 were 91 nM for STAT1, 107 nM for STAT3, 28 nM for STAT4, 122 nM for STAT5a, 56 nM for STAT5b and 101 nM for STAT6. Protein concentrations used for activity analysis of AC‐4‐130 were 103 nM for STAT5a and 62 nM for STAT5b. […] Final concentration of all fluorescent‐labelled peptides was 10 nM. The following peptides were used in assays: 5‐carboxyfluorescein‐GpYDKPHVL for STAT1; 5‐carboxyfluorescein‐GpYLPQTV‐NH2 for STAT3; 5‐carboxyfluorescein‐GpYLPQNID for STAT4; 5‐carboxyfluorescein‐GpYLVLDKW for STAT5a/5b, and 5‐carboxyfluorescein‐GpYVPWQDLI for STAT6. Protein and test compounds were incubated for 1 h prior to addition of the fluorescein‐labeled peptide. Fluorescence polarization was measured after another 60 min using an Infinite F500 plate reader (Tecan). IC50 values were converted to Ki‐values using the published equation.[13]
# STAT5a = target: T2, STAT5a (Homo sapiens, UniProt P42229); test: Competitive fluorescence polarization (FP) binding assay, STAT5a SH2 domain; conditions: for Ki / IC50: FP assay, 2 % DMSO (10 % DMSO for 10); for Ki: Ki calculated from IC50 (n=3) via published equation; for IC50: n=3 unless stated
# T2 sequence (P42229 1-794): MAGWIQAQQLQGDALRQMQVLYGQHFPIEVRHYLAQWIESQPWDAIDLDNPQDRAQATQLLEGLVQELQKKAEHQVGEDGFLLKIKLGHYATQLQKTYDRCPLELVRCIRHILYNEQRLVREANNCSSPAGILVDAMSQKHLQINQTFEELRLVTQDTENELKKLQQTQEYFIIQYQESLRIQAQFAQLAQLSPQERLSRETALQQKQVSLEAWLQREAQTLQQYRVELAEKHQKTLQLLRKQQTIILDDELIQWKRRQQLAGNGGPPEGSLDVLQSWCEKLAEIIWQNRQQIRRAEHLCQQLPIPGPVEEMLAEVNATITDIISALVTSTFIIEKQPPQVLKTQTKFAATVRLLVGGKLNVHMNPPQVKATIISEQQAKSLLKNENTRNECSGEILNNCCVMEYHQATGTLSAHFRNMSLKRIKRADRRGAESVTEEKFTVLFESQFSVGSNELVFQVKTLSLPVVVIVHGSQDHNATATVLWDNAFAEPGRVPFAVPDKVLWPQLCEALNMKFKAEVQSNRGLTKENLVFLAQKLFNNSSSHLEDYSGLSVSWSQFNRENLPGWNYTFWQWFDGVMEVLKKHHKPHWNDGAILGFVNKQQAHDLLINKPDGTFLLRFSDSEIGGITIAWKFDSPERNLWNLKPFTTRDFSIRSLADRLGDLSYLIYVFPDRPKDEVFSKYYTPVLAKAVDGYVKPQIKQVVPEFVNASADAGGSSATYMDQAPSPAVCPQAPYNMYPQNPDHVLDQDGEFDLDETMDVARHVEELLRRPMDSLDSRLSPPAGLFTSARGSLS
# Procedure: as §1
# STAT1 = target: T3, STAT1 (Homo sapiens, UniProt P42224); test: Competitive fluorescence polarization (FP) binding assay, STAT1; conditions: for IC50: 2 % DMSO for 5, 10 % DMSO for 10; for Ki: Ki calculated from IC50, 2 % DMSO for 5, 10 % DMSO for 10
# T3 sequence (P42224 1-750): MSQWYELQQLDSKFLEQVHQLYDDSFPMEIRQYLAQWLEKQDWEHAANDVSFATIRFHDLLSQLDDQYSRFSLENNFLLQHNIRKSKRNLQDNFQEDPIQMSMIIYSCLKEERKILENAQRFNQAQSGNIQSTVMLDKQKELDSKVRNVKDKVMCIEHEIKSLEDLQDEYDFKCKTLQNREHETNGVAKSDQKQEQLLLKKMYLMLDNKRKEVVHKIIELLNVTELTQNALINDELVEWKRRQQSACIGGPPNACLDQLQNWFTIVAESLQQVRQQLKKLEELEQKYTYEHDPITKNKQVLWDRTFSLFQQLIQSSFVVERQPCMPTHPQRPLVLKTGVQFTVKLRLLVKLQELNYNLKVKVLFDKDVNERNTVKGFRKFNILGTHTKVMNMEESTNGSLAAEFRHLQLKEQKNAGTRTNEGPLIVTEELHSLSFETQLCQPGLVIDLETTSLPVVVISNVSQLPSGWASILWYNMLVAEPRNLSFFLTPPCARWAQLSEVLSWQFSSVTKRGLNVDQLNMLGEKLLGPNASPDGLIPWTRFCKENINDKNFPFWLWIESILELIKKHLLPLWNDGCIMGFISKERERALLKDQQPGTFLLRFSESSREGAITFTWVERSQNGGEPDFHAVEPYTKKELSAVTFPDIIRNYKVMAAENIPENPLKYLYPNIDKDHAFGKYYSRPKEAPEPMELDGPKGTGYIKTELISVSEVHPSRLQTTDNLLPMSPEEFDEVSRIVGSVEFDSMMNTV
# Procedure: as §1
# [1] = Solubility as observed during synthesis / stock preparation; type: physicochemical; conditions: DMSO stock solution
activity compared with AC-4-130 in FP assay against the SH2 domain of STAT5a (STAT5a; Figure 5C),solubility in the DMSO stock solution [1],Structure (SMILES),IC50 (STAT4) [µM],Ki (STAT4) [µM],Ki (STAT5a) [µM],IC50 (STAT5a) [µM],IC50 (STAT1) [µM],Ki (STAT1) [µM]
,,O=C(CNc1ccc(C(=O)Nc2ccc(Oc3ccccc3)cc2)cc1)NCc1cc(OP(=O)(O)O)cc(OP(=O)(O)O)c1 [compound 5],11.3 ± 2.7,5.3 ± 1.3,3.1 ± 0.1,6.4 ± 0.2,70.4 ± 3.1,34.6 ± 1.5
substantially more active than AC‐4‐130,limited solubility,O=C(CNc1ccc(C(=O)Nc2ccc(Oc3ccccc3)cc2)cc1)NCc1cc(C(F)(F)P(=O)(O)O)c(F)c(C(F)(F)P(=O)(O)O)c1 [compound 10],11.2 ± 1.2,5.3 ± 0.6,3 ± 0.4,6.2 ± 0.7,53.8 ± 1.6,26 ± 0.8

# Source: publication PMC10099813, “Stafiba: A STAT5‐Selective Small‐Molecule Inhibitor” (Chembiochem, 2022)
